System: mealybug, Pseudococcus spp.
Experiment: Field efficacy on mealy bug, small-plot trials on cotton (Trials A, B, C)
Assay type: in vivo
Conditions: Sulfoxaflor 50 g/ha, Chlorpyrifos 500 g/ha, mixture 50 + 500 g/ha
Procedure: Field Efficacy on Mealy Bug
Applications were made to cotton, Gossypium hirsutum, using small-plot efficacy methods. Chemicals were diluted in water and all treatments were applied using a backpack sprayer calibrated to deliver 500 liters of spray per hectare. Experimental plots measured 5 by 10 meters and each treatment was replicated three times in each trial. Prior to treatment, 20 plants that were uniformly infested with mealybug, Pseudococcus spp., were marked in each experimental plot. At the specified intervals after treatment, the severity of mealybug infestation on the marked plants was rated using a 0-4 scale, where 0=no infestation and 4=stunted, blackened plant. The score for each plant in each experimental plot was summed to provide a total severity score for the plot. Data were transformed to percent control relative to the untreated plots, then subjected to analysis of variance, and means were separated using Tukey's HSD (p=0.1). Expected control was calculated using the method of Colby and compared to observed control. See the Table Section for the results of the Field Trials.

Compound	% Control (Trial A, 3 DAT) [%]	% Control (Trial A, 7 DAT) [%]	% Control (Trial A, 11 DAT) [%]	% Control (Trial B, 3 DAT) [%]	% Control (Trial B, 7 DAT) [%]	% Control (Trial B, 11 DAT) [%]	% Control (Trial B, 14 DAT) [%]	% Control (Trial C, 4 DAT) [%]	% Control (Trial C, 8 DAT) [%]	% Control (Trial C, 11 DAT) [%]	% Control (Trial C, 14 DAT) [%]
CCOP(=S)(OCC)Oc1nc(Cl)c(Cl)cc1Cl [Chlorpyrifos]	35.64	43.34	43.60	35.23	38.80	33.51	26.89	36.44	33.37	28.24	23.03
CC(c1ccc(C(F)(F)F)nc1)S(C)(=O)=NC#N (stereo not shown) [Sulfoxaflor]	17.56	21.65	20.68	−2.66	7.81	7.81	5.32	7.39	9.19	4.76	2.49

From US8685423B2, “Controlling mealybugs” (priority 2011, dated 2014)
